Laboratory results reported in patent US20100183629A1, “ANTAGONISTS OF ENDOTHELIAL DIFFERENTIATION GENE SUBFAMILY 3 (EDG-3, S1P3) RECEPTORS FOR PREVENTION AND TREATMENT OF OCULAR DISORDERS” (ALCON RESEARCH, LTD., priority 2006, published 2010).

Target: T1, Edg3 receptor (Homo sapiens, UniProt Q99500)
T1 construct: endogenous in cells; host or cells: cultured human trabecular meshwork (TM) cells
Assay: PAI-1 levels (ELISA) in supernatants of treated human TM cell cultures, Edg3 receptor antagonism
Assay type: cell-based
Conditions: human trabecular meshwork cell cultures, 24 hours
Description: FIG. 2A and FIG. 2B. Human trabecular meshwork cell cultures were treated with (open circles) or without (closed circles) the Edg3 receptor subtype antagonist CAY10444 in the presence of various amounts of the endogenous Edg receptor agonist S1P (FIG. 2A) or in the presence of various amounts of FTY720, a structural analog of SIP (FIG. 2B). Twenty-four hours later, the levels of the secreted PAI-1 protein were then determined by ELISA of supernatant aliquots from the treated cultures as cited in Example 2.
The effect of Edg3 receptor antagonism on expression of extracellular matrix-related proteins by cultured human trabecular meshwork cells is determined as follows. […] Levels of extracellular matrix-related proteins, such as fibronectin, plasminogen activator inhibitor I (PAI-1), collagens, fibrillin, vitronectin, laminin, thrombospondin I, proteoglycans, or integrins, are then measured in each cell culture group via standard enzyme-linked immunoabsorbent assays (ELISA). […]
An example of the effect of Edg3 receptor antagonism on PAI-1 levels in supernatants from treated human TM cell cultures is shown in FIG. 2A and FIG. 2B. […] Twenty-four hours later, the levels of the secreted PAI-1 protein were then determined by ELISA of supernatant aliquots from the treated cultures.

T1 sequence (Q99500 whole entry): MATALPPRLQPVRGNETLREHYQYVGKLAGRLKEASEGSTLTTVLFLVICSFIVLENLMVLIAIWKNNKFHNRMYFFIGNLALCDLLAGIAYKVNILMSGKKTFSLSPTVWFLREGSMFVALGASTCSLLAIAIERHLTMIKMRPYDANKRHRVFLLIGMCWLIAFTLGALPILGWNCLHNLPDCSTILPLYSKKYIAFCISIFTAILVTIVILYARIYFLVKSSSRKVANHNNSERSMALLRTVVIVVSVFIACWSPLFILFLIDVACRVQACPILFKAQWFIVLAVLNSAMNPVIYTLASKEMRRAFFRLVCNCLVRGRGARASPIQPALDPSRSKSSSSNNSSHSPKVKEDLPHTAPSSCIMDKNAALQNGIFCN

- antagonism of FTY720 effect on secreted PAI-1 protein level (various amounts of FTY720, ELISA of supernatant (FIG. 2B)): potently and efficaciously antagonized
- antagonism of S1P effect on secreted PAI-1 protein level (various amounts of S1P, ELISA of supernatant (FIG. 2A)): potently and efficaciously antagonized
SMILES: CCCCCCCCCCCC1N[C@H](C(=O)O)CS1 (some centres unmarked) [CAY10444]
